Measurements from patent publication US20110098255A1, “COMBINATION OF A PARP INHIBITOR AND AN AKT KINASE ACTIVATING COMPOUND” (priority 2008, published 2011).

Experiments:
[1] = system: cuprisone induced changes in the central nervous system of C57BL/6 mice (corpus callosum demyelinization); test: Cuprizone induced demyelinization determined with MRI (CC/control tube intensity); format: in vivo; conditions: cuprizone-treated mice, after 5 weeks of treatment, i.p.
Method: (§1) During the experiment C57BL/6 mice were kept in a standard environment, they were given tap water and ground mice feed ad libitum. The mice were taken care of according to ethical requirements relating to treatment of animals.
(§2) According to a previously described method [Journal of Neuroimmunology 92 (1998): 38-49], 7-8 week old C57BL/6 male mice were treated for 6 weeks per os with cuprizone (Sigma, Steinheim, Germany). The mice were divided into 5 groups with 8 mice in each group.
(§3) Oxidation of cuprizone was prevented by giving fresh feed to the mice every day. PARP inhibitors and/or Akt kinase activating agents were placed in physiological saline solution, filtered to sterility, and administered intraperitoneally in the proper dosage. […] Control animals were given i.p. an amount of sterile physiological solution corresponding to their bodymass.
(§4) It is known from the literature (NMR Biomed. 2005 Oct.; 18(6):395-403) that T1 and T2 MRI image intensity correlates with the degradation and regeneration of the myelin sheath in this model. Oedema and hydrocephalus registers as hyperintensity on the T2 image. For quantification of hydrocephalus MRI is more suitable than histology because during fixation and histological processing there is significant shrinkage and volume degradation (Exp. Neurology 118 (1992): 1-6). MRI micro image technique makes it possible to study the above changes in vivo for weeks.
(§5) After three weeks, the mice were placed into the NMR instrument in narcosis every week [5 mg/kg bodymass diazepam (Seduxen) and 90 mg/kg bodymass ketamine (Calypsol, Richter Gedeon Zrt., Budapest) intraperitoneally]. T1 and T2 images were acquired with Varian ^uNITYIINOVA NMR spectrometer from the bulbus olfactorius to the beginning of the spinal cord in transverse sections of 1 mm thickness. Signal intensity of a glass tube with 1 mm internal diameter, which was filled with 9:1 water-glycerin mixture, was used as outer control. The development and size of demyelinization was determined by comparing average signal intensity detected at the area of the corpus callosum with the average intensity of the outer control. Average signal intensity of the corpus callosum (CC) was determined by an expert who was blind to the experiment from the section 1 mm posterior to the bregma by manually marking the region of interest (ROI), i.e. the corpus callosum (CC). Intensity of ROI was normalized to the intensity of the control tube.

[2] = system: cuprisone induced changes in the central nervous system of C57BL/6 mice (hydrocephalus); test: Cuprizone induced hydrocephalus determined with MRI (chamber/brain volume ratio); format: in vivo; conditions: cuprizone-treated mice, after 5 weeks of treatment, i.p.
Method: as §1, §2, §3, §4, §5
The development and the degree of hydrocephalus were quantified by calculating the chamber/brain volume ratio. The area of the chambers was outlined manually in each section, and the whole volume was calculated as the sum of the areas multiplied with the thickness of the sections (1 mm). The same method was used for the determination of the […].

[3] = system: MBP induced formation of EAE in PJSJL mice; conditions: cited from earlier work
[4] = system: LPS induced septic shock in normal BALB/c mice; conditions: cited from earlier work
[5] = Example 1, doxycycline 1 mg/kg, estriol 0,4 mg/kg bodymass
[6] = Example 2, doxycycline 1 mg/kg, trans-resveratrol 0,4 mg/kg bodymass
[7] = Example 3, 4-HQ 20 mg/kg, trans-resveratrol 0,4 mg/kg bodymass
[8] = Example 4, Carb 2 mg/kg, trans-resveratrol 0.4 mg/kg bodymass

Row | SMILES | CC/control tube (demyelinization) [1, 5] | Chamber/brain vol. ratio (hydrocephalus) [2, 5] | MBP induced formation of EAE [3] | prevention of LPS induced septic shock [4] | CC/control tube (demyelinization) [1, 6] | Chamber/brain vol. ratio (hydrocephalus) [2, 6] | CC/control tube (demyelinization) [1, 7] | CC/control tube (demyelinization) [1, 8] | Chamber/brain vol. ratio (hydrocephalus) [2, 7] | Chamber/brain vol. ratio (hydrocephalus) [2, 8]
1 | C[C@]12CC[C@@H]3c4ccc(O)cc4CC[C@H]3[C@@H]1C[C@@H](O)[C@@H]2O [estriol] | 1.2 ± 0.13 | 0.134 ± 0.02 | – | – | – | – | – | – | – | –
2 | CN(C)CC(=O)Nc1ccc2[nH]c(=O)c3ccccc3c2c1.Cl [PJ-34, N-(6-oxo-5 ,6-dihydrophenanthridin-2-yl)-N,N-dimethylacetamide.HCl] | – | – | effectively decreased | successful in preventing LPS induced septic shock | – | – | – | – | – | –
3 | C[C@H]1c2cccc(O)c2C(=O)C2=C(O)[C@]3(O)C(=O)C(C(N)=O)=C(O)[C@@H](N(C)C)[C@@H]3[C@@H](O)[C@@H]21 [doxycycline] | 1.1 ± 0.18 | 0.128 ± 0.012 | – | – | 1.2 ± 0.17 | 0.117 ± 0.02 | – | – | – | –
4 | Oc1ccc(/C=C/c2cc(O)cc(O)c2)cc1 [resveratrol, trans-resveratrol] | – | – | – | – | 1.3 ± 0.09 | 0.138 ± 0.017 | 1.3 ± 0.09 | 1.3 ± 0.09 | 0.138 ± 0.017 | 0.138 ± 0.017
